# In US10857228B2, “Adjuvant for vaccines, vaccine, and immunity induction method” (The University of Tokyo, priority 2015, dated 2020):
# B1: granulocyte monocyte colony stimulating factor (protein, UniProt P01587 18-141, looked up)
# Granulocyte-macrophage …: APTRSPITVTRPWKHVEAIKEALNLLDDMPVTLNEEVEVVSNEFSFKKLTCVQTRLKIFEQGLRGNFTKLKGALNMTASYYQTYCPPTPETDCETQVTTYADFIDSLKTFLTDIPFECKKPGQK
# notes: inducer of expression of Raldh2; added with CpG ODN to stimulate spleen cDCs
# What was measured:
# [1] = system: pulmonary mucosa lamina propria cells; assay: Cytokine production of pulmonary mucosa lamina propria cells after intranasal booster; assay type: in vivo, mice; conditions: 7 days after intranasal OVA, cultured 4 days with OVA 100 μg/ml
# Method: IFA, IFA+OVA+CpG ODN, IFA+OVA+curdlan, and IFA+OVA+CpG ODN+curdlan were administered to mice by intramuscular injection, respectively. On Day 35, 1 μg/mouse of OVA was administered by intranasal administration to perform booster immunization, and, 7 days later antigen-specific total IgG in the serum and IgA in the bronchoalveolar lavage fluid were measured by ELISA.
# In the experiment of 9, 7 days after the intranasal administration of OVA, pulmonary mucosa lamina propria cells were extracted from the mice and cultured in the presence of the antigen (OVA 100 μg/ml) for 4 days and IFN-γ, IL-4, and IL-17 production was measured by ELISA.
# CD57BL/6 mice = assay: IgA induction by spleen cDCs stimulated with OVA, CpG ODN and GM-CSF, intraperitoneally administered to mice; assay type: in vivo; conditions: spleen cDCs stimulated 24 hours with OVA 100 μg/ml and adjuvant, given i.p. Day 0 and Day 14; oral OVA Day 21 to 25; ELISA Day 32
# Method: Spleen cDCs were stimulated for 24 hours using ovalbumin (OVA; 100 μg/ml) as an antigen and CpG ODN 1668 (1 μg/ml) only or the combination of CpG ODN and GM-CSF (10 ng/ml) as an adjuvant.
# Here, the fractioning of murine small intestine mucosa lamina propria cells with the dendritic cell marker CD11c and the macrophage marker CD11b produces the 4 groups: R1 (dendritic cells) (CD11c high CD11b low), R2 (dendritic cells) (CD11c high CD11b high), R3 (macrophages) (CD11c int CD11b int), R4 (acidophiles) (CD11c int CD11b high). The R2 dendritic cells specifically express Raldh2 and induce the Th17 response and the IgA production (Non-Patent Literature 1). Therefore, the R2 dendritic cells were stimulated with OVA (100 μg/ml) and CpG ODN 1668 (1 μg/ml) as positive control. Spleen cDCs were stimulated with OVA (100 μg/ml) and CpG ODN 1668 (1 μg/ml) with or without GM-CSF (10 ng/ml).
# On Day 0 and Day 14 after the stimulation, dendritic cells (each 5×10^4 cells) (or PBS) which took up the antigen were intraperitoneally administered into CD57BL/6 mice. On Day 21 to Day 25, 1 mg/mouse of OVA was orally administered daily and, on Day 32, total of antigen-specific IpG in serum and antigen-specific IgA in feces were measured by ELISA.
# Dectin-1 = assay: Expression of Dectin-1 in spleen-derived dendritic cells with CpG ODN stimulation; assay type: cell-based; conditions: spleen-derived dendritic cells stimulated with CpG ODN
# Method: Next, the expression of Dectin-1, which is a receptor that recognizes β-1,3-glucan, in dendritic cells was measured. The summary and the result of the experiment are illustrated in FIG. 12. As illustrated in the left panel in the figure, it was confirmed that, in spleen-derived dendritic cells, the expression of Dectin-1 is not high, but the expression of Dectin-1 increases more than 3 times by stimulating the cells with CpG ODN. Dectin-1 is known to induce the Th17 response. These indicate the mechanism of the present invention in which the addition of both of CpG ODN and β-1,3-glucan to the adjuvant makes dendritic cells easy to receive the stimulation with β-1,3-glucan and induces the Th17 response.
# Raldh2 = assay: Induction of Raldh2 mRNA expression in spleen cDCs (RT-PCR); assay type: cell-based; conditions: spleen cDCs stimulated 24 hours
# Method: Next, zymosan (component of yeast cell wall of Saccharomyces cerevisiae; 25 ng/ml) and curdlan ((β-1,3-glucan derived from Agrobacterium spp., Alcaligenes spp.; 25 ng/ml) were used as glucan-based compound. Spleen cDCs were stimulated with these substances for 24 hours and, after collecting RNA, the expression of Raldh2 mRNA was measured by RT-PCR.
Molecule,IFN-γ production [1],antigen-specific IgA in feces (CD57BL/6 mice),increase of expression of Dectin-1 (Dectin-1),expression of Raldh2 mRNA (Raldh2)
CpG ODN 1668,induced,induced little production of IgA,more than 3 times,
curdlan,induced,,,induced the expression of Raldh2
B1,,induced IgA production more than the R2 dendritic cells,,induced the expression of Raldh2
